From PubChem BioAssay AID179 (DTP/NCI, 2004) come the findings set out here.

Where “and” joins values, the source holds several entries; their conditions need not be identical. Equal values may be shown once. Calls of active or inactive are those of the source.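 The calls were made as follows: active = compounds giving half or more protection of infected cells from virus-caused growth loss, again on retest; inactive = the rest.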 A value given as a limit tells only on which side of the number the result lay.

This test relates to CEM cells HIV-1 protection, formazan growth assay. The experiment in a line: NCI AIDS Antiviral Assay. The settings on record: for IC50: measured here: growth of uninfected CEM cells. The procedure, abridged:
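Human CEM cells, uninfected and HIV-1-infected, received five drug concentrations, and growth was read by soluble formazan assay. Compounds giving at least 50% protection were retested; reproducible 100% protection defined confirmed active.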

By EC50 is commonly meant the concentration that produces a half-maximal response. As usually defined, the IC50 is the midpoint of a concentration-inhibition curve. A higher IC50 goes with lower potency. Take `O=C(CCCc1cccc2[nH]c3c(c12)CN(Cc1ccccc1)CC3)c1ccc(F)cc1`: the EC50 was over 200 µM and the IC50 was found to be 14.5 µM.

`COc1ccc(C(=O)[O][Sn]([c]2ccccc2)([c]2ccccc2)[c]2ccccc2)c(OC)c1OC`: the EC50 was over 2 µM and the IC50 turned out to be 0.11 µM.

On to `COc1ccc(NCc2cnc3nc(N)nc(N)c3c2C)cc1`, for which the EC50 is over 200 µM and the IC50 is 0.437 µM.

Consider `CC(=O)c1ccc2c(c1)NC(=O)CC(C)N2` (stereo unspecified), for which the EC50 was over 200 µM and the concentration for half-maximal inhibition (IC50) is over 200 µM.

Regarding `CC1=C(C(=O)NCc2ccccc2)C(c2ccccc2[N+](=O)[O-])C(C(=O)NCc2ccccc2)=C(C)N1`, the EC50 was over 7.59 µM and the IC50 was over 7.59 µM.

With `CC1C=C(Sc2ccccc2)C(=O)O1` (stereo unspecified), the EC50 is over 468 µM and the half-inhibitory concentration (IC50) stood at 25.1 µM.

Consider `O=c1c2ncn(C3CCCCO3)c2n(-c2ccccc2)c(=S)n1-c1ccccc1` (stereo unspecified), for which the outcome was inactive.

Turning to `O=C(CC1(CC(=O)NCc2ccccc2)OCCO1)NCc1ccccc1`, the result was inactive.

Consider `Cn1c2ccccc2c2cc(-c3ccccc3)c3c(c21)C(=O)C=CC3=O`, for which the EC50 was over 77.6 µM and the IC50 stood at 2.57 µM.

Regarding `C(=Nc1cnc2ccccc2c1)c1ccnc2ccccc12`, the EC50 was over 66.1 µM and the IC50 is 3.55 µM.

In the case of `CCOC(=O)/C(=C/c1ccccn1)C(=O)c1ccccc1`, the EC50 was over 240 µM and the IC50 came out at 12.6 µM.

On to `Cc1ccccc1SC(/C=C/NNC1=NC(c2ccccc2)C(c2ccccc2)=NN1)c1ccccc1` (stereo unspecified), for which the EC50 is over 20 µM and the IC50 was over 20 µM.

Take `C[n+]1c(-c2ccc(/C=N/Nc3n[nH]c(=S)n3N/N=C/c3ccc(-c4cn5ccccc5[n+]4C)cc3)cc2)cn2ccccc21`: the EC50 was 18.6 µM and the IC50 is over 200 µM.

For the molecule `Cn1ncc2[nH]cnc2c1=S`, the EC50 was over 200 µM and the IC50 worked out at 26.9 µM.

For `O=P(O)(O)c1ccccc1Oc1ccccc1`, the EC50 is over 200 µM and the IC50 is over 200 µM.

For the molecule `CC(C(=O)NCNC(=O)c1ccccc1)C(=O)Nc1ccccc1` (stereo unspecified), the result was inactive.

In the case of `C[Si](C)(C)C1=C2C(=O)c3ccccc3C(=O)C2=C([Si](C)(C)C)[C@@H]2CCCC[C@H]12`, the EC50 was over 50.1 µM and the IC50 was over 50.1 µM.

`CC(=O)OCC1OC(n2c(-c3ccccc3)cc(-c3ccccc3)c(C#N)c2=O)C(OC(C)=O)C(OC(C)=O)C1OC(C)=O` (stereo unspecified): the EC50 is over 16.6 µM and the IC50 was over 16.6 µM.

Regarding `O=c1[nH]c2ccccc2nc1/C=C(\O)C(F)F`, the EC50 is over 200 µM and the IC50 was over 200 µM.

Turning to `CCOC(=O)C1SC(=Nc2ccc(C)c(C)c2)N=C1C` (stereo unspecified), the EC50 was over 18.2 µM and the IC50 is over 18.2 µM.

`Cc1c([O-])c([O-])c(-c2c([O-])c([O-])c(C)c3c2OCO3)c2c1OCO2.[C-]#[O+].[C-]#[O+].[C-]#[O+].[C-]#[O+].[C-]#[O+].[C-]#[O+].[C-]#[O+].[C-]#[O+].[Re].[Re]`: the EC50 was over 174 µM and the IC50 worked out at 93.3 µM.

For `CN=c1sc2c(n1C)C(=O)c1ccccc1C2=O`, the EC50 was over 200 µM and the IC50 was 9.33 µM.

As to `CCOC(=O)c1nc2ccccc2nc1NCc1cc(OC)c(OC)c(OC)c1`, the EC50 was over 200 µM and the IC50 turned out to be 27.5 µM.

For the molecule `O=P1(Oc2ccccc2)NCc2ncccc2O1` (stereo unspecified), the EC50 is over 200 µM and the IC50 is over 200 µM.

With `NC(N)=N/N=C\c1c(-c2ccccc2)nc2sccn12`, the EC50 was over 200 µM and the IC50 came out at 12 µM.

As for `O=C(Cc1nc2ccc(C(=O)c3ccccc3)cc2[nH]c1=O)C(=O)Nc1nc2ccccc2[nH]1`, the outcome was inactive.

Consider `CC(=O)c1ccccc1NCC(=O)Nn1cnc2ccc(S(=O)(=O)Nc3ccccc3C(C)=O)cc2c1=O`, for which the EC50 is over 200 µM and the IC50 was over 200 µM.

Take `Cn1c(=O)c2c(nc3n2C(CCl)CO3)n(C)c1=O` (stereo unspecified): the result was inactive.

For `C1CCCCc2nc3c(nc2CCC1)c1nc2c(nc1c1nc4c(nc31)CCCCCCCC4)CCCCCCCC2`, the outcome was inactive.

On to `c1cc(CSP234N5CCN2CCN3CCN4CC5)ccc1CSP123N4CCN1CCN2CCN3CC4`, for which the EC50 is over 100 µM and the IC50 was determined as 36.3 µM.

Regarding `CCOC(=O)CN1CCC2CC1c1c([nH]c3ccccc13)C2c1cc2c(cc1OC)N(C)C1C(O)(C(=O)OC)C(OC(C)=O)C3(CC)C=CCN4CCC21C43` (stereo unspecified), the EC50 was over 9.55 µM and the half-maximal inhibitory concentration (IC50) was over 9.55 µM.

As for `CSc1c(C(=O)Nc2ccc(Cl)cc2)c(N)[nH]c(=O)c1C#N`, the EC50 was over 200 µM and the IC50 was 1.2 µM.

Consider `CSC1=NN(c2ccccc2)C(=O)C1=C(SC)SC`, for which the EC50 is over 200 µM and the IC50 amounted to 25.1 µM.

Turning to `O=C(O)c1cc2c(cc1CC(Cc1ccccc1)C(=O)O)CCC2` (stereo unspecified), the result was inactive.

`Cc1nc(N)sc1C(=O)/C=C/c1ccc(/C=C/C(=O)c2sc(NC(=O)CCCCCCCCC(=O)Nc3nc(C)c(C(=O)/C=C/c4ccc(/C=C/C(=O)c5sc(N)nc5C)cc4)s3)nc2C)cc1`: the EC50 is over 251 µM and the IC50 was 162 µM.

Turning to `Cc1cn(C2CCC(COP(=O)(OCOC(=O)C(C)(C)C)OCOC(=O)C(C)(C)C)O2)c(=O)[nH]c1=O` (stereo unspecified), the outcome was active.

Consider `CN(C)CCN1C(=O)c2c(c3cccn3c3c2cnn3-c2ccccc2)C1=O`, for which the EC50 is over 200 µM and the IC50 is over 200 µM.

In the case of `O=C(Nc1ccccc1)n1cc(-c2ccccn2)c(N2CCOCC2)n1`, the EC50 is over 195 µM and the IC50 is 53.7 µM.

As to `Cc1cc(O)c2c(c1)C(=O)C=C(Br)C2=O`, the EC50 is over 100 µM and the IC50 came out at 1.58 µM.

As to `COP(=O)(OC)c1nc(P(=O)(OC)OC)nc(P(=O)(OC)OC)n1`, the EC50 was over 110 µM and the IC50 is 89.1 µM.

Turning to `CCCCN(CCCC)c1cc(=O)nc2ccccn12`, the EC50 was over 200 µM and the IC50 is over 200 µM.

Take `CC(C)OCC(O)COc1cc(=O)oc2ccccc12` (stereo unspecified): the EC50 is over 200 µM and the IC50 was over 200 µM.

In the case of `Cc1cc(N(CCC#N)CCC#N)ccc1/C=C1N=C(/C=C/c2ccccc2)OC(=O)N\1`, the EC50 was over 3.39 µM and the IC50 is over 3.39 µM.

Turning to `COc1ccc2nc3cc([N+](=O)[O-])ccc3c(NNc3ccc(Cl)cc3)c2c1`, the EC50 is over 200 µM and the IC50 was 33.1 µM.

With `CC[As](CC)SCC1OC(OC(C)=O)C(OC(C)=O)C(OC(C)=O)C1OC(C)=O` (stereo unspecified), the EC50 was over 191 µM and the IC50 came out at 4.57 µM.

For `CC1=NN(C(=O)CC(=O)Nc2cccc(C)c2)C(=O)C1N=Nc1ccc(S(=O)(=O)c2ccc(N=NC3C(=O)N(C(=O)CC(=O)Nc4cccc(C)c4)N=C3C)cc2)cc1` (stereo unspecified), the EC50 is over 50.1 µM and the IC50 was over 50.1 µM.

For the molecule `C=C1C(=O)O[C@H]2C1[C@H](OC(=O)/C(C)=C\COC(C)=O)C[C@]1(CO1)[C@@H]1[C@H](O)[C@H]3O[C@@]3(C)[C@@H]12` (stereo partly specified), the result was inactive.

Consider `CCOC(=O)CSc1ccnc(=O)[nH]1`, for which the EC50 was over 851 µM and the IC50 was over 851 µM.

In the case of `c1ccc(N2N=NC3C4CCC(C4)C32)cc1` (stereo unspecified), the EC50 is over 200 µM and the half-maximal inhibitory concentration (IC50) was over 200 µM.

Turning to `O=C(Nc1ccccc1)n1[nH]c(=O)n(-c2ccccc2)c1=O`, the EC50 was over 200 µM and the IC50 is over 200 µM.

Regarding `CC1=C[C@H]2c3c([nH]c4ccccc34)C(c3c[nH]c4ccccc34)[C@H]2CC1` (stereo partly specified), the result was inactive.

In the case of `O=C(O)C1CC(C(=O)O)SS1` (stereo unspecified), the EC50 is over 1290 µM and the IC50 was over 1290 µM.

For the molecule `COc1ccc(-c2cc(O)c3nc4ccccc4n3c2)cc1`, the EC50 was over 200 µM and the IC50 was over 200 µM.

Consider `CCOC(=O)C1=C(C(=O)OCC)C2(c3ccccc3)N(O1)c1ccccc1C2(C)C` (stereo unspecified), for which the outcome was inactive.

Consider `C/C(N)=C/C(=O)c1[nH]c(C(=O)O)cc1C1CCN(Cc2ccccc2)C1=O` (stereo unspecified), for which the EC50 was over 200 µM and the concentration for half-maximal inhibition (IC50) was determined as 31.6 µM.

For `COC(=O)C(Cc1nc2ccc(Cl)cc2[nH]c1=O)/C(=N/O)C(=O)Nc1cccc(Cl)c1C` (stereo unspecified), the EC50 was over 105 µM and the IC50 was over 105 µM.

With `CCOC(=O)c1ncn2c1[nH]c(=S)c1ccccc12`, the EC50 was over 26.3 µM and the concentration for half-maximal inhibition (IC50) is over 26.3 µM.

Turning to `C[C@H]1ON2CCC[C@@H]2[C@@H]1C(=O)N1C2CC3CCC2(CS1(=O)=O)C3(C)C` (stereo partly specified), the EC50 is over 200 µM and the IC50 was over 200 µM.

With `CC(C)C(Sc1nc(-c2ccccc2)c(-c2ccccc2)[nH]1)C(=O)NN` (stereo unspecified), the EC50 is over 10.2 µM and the IC50 is 4.9 µM.

As to `Cc1[cH-]c(=O)n(-c2ccccc2)n1.[Au+].[Au].c1ccc([PH+](c2ccccc2)c2ccccc2)cc1.c1ccc([PH+](c2ccccc2)c2ccccc2)cc1`, the EC50 is over 3.47 µM and the IC50 was over 3.47 µM.

In the case of `Cn1cnc([N+](=O)[O-])c1Sc1ncn[nH]1`, the EC50 is over 1100 µM and the IC50 was determined as 17.8 µM.

As for `CC(C)C(/C=C/c1ccccc1)=N\NC(=S)NN`, the EC50 was over 200 µM and the IC50 came out at 102 µM.

Consider `CN(NC(=O)c1cccs1)C1=NCCN1`, for which the EC50 was over 200 µM and the IC50 is over 200 µM.

Turning to `NS(=O)(=O)c1ccc(NC(=O)c2cccc3cc4ccccc4nc23)cc1`, the EC50 was over 79.4 µM and the IC50 worked out at 4.79 µM.

As for `O=c1ncccn1C1OC(CO)C(O)C1F` (stereo unspecified), the outcome was inactive.

`CCOC(=O)CC(C)OC1CCCCO1` (stereo unspecified): the result was inactive.

For `O[C@@H]1CO[C@H]2[C@@H]1OC[C@@H]2O`, the EC50 was over 200 µM and the IC50 is over 200 µM.

`CC(=O)Nc1ccc(-c2nnc(SCC(=O)Nc3ccccc3C)o2)cc1`: the EC50 is over 67.6 µM and the concentration for half-maximal inhibition (IC50) is 61.7 µM.

Regarding `CC(=O)OCC1OC(n2c(N)c(C#N)c(C)c(C#N)c2=S)C(OC(C)=O)C(OC(C)=O)C1OC(C)=O` (stereo unspecified), the 50% effective concentration (EC50) is 145 µM and 162 µM; the IC50 was over 200 µM.

Consider `O=C1CC[C@@H](S(=O)(=O)c2ccccc2)[C@@H](/C=C/c2ccccc2)O1`, for which the outcome was inactive.
